# Tests used:
# [1] = test system: KLH-specific Th1 cells (clone D3); assay: Th1 cell anergy induction in vitro (primary culture with MEB, secondary culture restimulation); assay type: cell-based, C57BL/10 mice; conditions: for Proliferation in antigen-stimulated secondary cultures: secondary: KLH
# Description: KLH-specific Th1 cells (clone D3) are incubated in primary cultures with (FIG. 5A) MEB (1 mM) and/or IL-2 (10% Con A CM), or (FIG. 5B) MEB (1 mM) and/or KLH (50 μg/ml). After 2 days, the Th1 cells are isolated from the primary cultures, rested, and then re-incubated in secondary cultures stimulated with antigen (KLH, 50 μg/ml) or IL-2 (10% Con A CM).
# Th1 cells are treated with MEB in the presence or absence of antigen or exogenous IL-2.
# The ability of the butyrate derivative to induce Th1 cell anergy is examined using a protocol previously developed for n-butyrate-induced T cell tolerance (Gilbert and Weigle, 1993). Briefly, Th1 cells are incubated in primary cultures at 2.5×10^5 cells/ml, along with MEB (1 mM), KLH (50 μg/ml), and 5×10^6/ml irradiated syngeneic spleen cells as APC. Alternatively, the Th1 cells are incubated in primary cultures containing MEB and IL-2 (10% Con A CM). Control primary cultures receive MEB and APC, but no antigen or IL-2. After incubation for 24 h at 37° C., the cells in the primary cultures are harvested, washed free of MEB, and reincubated at 2.5×10^5 ml in secondary cultures without MEB. The Th1 cells in the secondary cultures are stimulated with 10% IL-2-cQntaining Con A CM, or with 5×10^6/ml irradiated syngeneic spleen cells as APC, and KLH. After 2 days in the secondary cultures, the Th1 cells are assessed for proliferation (pulsed with [^3H]-TdR for 12 h).
# [2] = test system: isotype-specific anti-ovalbumin antibody; assay: Isotype-specific anti-ovalbumin antibody after a single dose of MEB, primary and secondary response; assay type: in vivo, C57BL/10 mice
# Description: C57BL/10 mice are injected ip with ovalbumin/CFA on day 0, followed by a single ip injection of saline or MEB (0.15 mmol) on Days 2 or 3. The mice are reimmunized with ovalbumin sc on Day 10. Isotype-specific anti-ovalbumin antibody generated during the primary immune response (FIG. 4A), and the secondary immune response (FIG. 4B) are measured in the serum at day 10 and day 16, respectively. (FIG. 4C). […] This experiment was repeated, and the proliferation data represents the means of the two experiments.
# The butyrate derivatives are tested for their ability to suppress lymphocyte activity in vivo. C57BL/10 mice (5 mice/group) are injected ip with 100 μg of ovalbumin in conjunction with complete Freund's adjuvant on Day 0. In one experiment, the mice also receive one ip injection per day of the butyrate derivatives (0.091 mmol) on Days 1–3. Serum samples are obtained 10 days after the initial injection with ovalbumin, and tested for the presence of anti-ovalbumin antibodies using an ELISA. To perform the ELISA 96 well plates (Costar 3595) are first incubated with ovalbumin (100 μl/well of 100 μg/ml in PBS) overnight at 4° C. The plates are then washed 4 times with PBS and 0.5% Tween 20, blocked with 1% fetal calf serum for 30 minutes at 37° C., and washed again. Individual serum samples are added (diluted 1/100 or 1/1000 in PBS), and the plates are incubated for 2 hours at 20° C. The plates were next washed 7 times with PBS/Tween, and alkaline phosphate (AP)-labeled goat anti-mouse IgG, IgA, IgM (H+L) (Zymed) is added ( 1/1000) for 1 hour at 20° C. The plates are again washed 7 times with PBS/Tween, alkaline phosphate substrate (1 mg/ml) is added. After 10 minutes, Ig levels are quantified by an ELISA reader (absorbance 405 nm). The concentration of anti-ovalbumin is determined by comparison with a standard curve obtained using mouse anti-ovalbumin antibody (Sigma; St. Louis, Mo.). To measure isotype-specific anti-ovalbumin antibodies, serum samples (diluted at 1/300 or 1/1000) are incubated on the ovalbumin-coated plates as described above. After washing, biotinylated detecting antibodies directed against mouse IgG2a (rat IgG1, clone R19–15), IgG2b (rat IgG2a, clone R12–3) IgG1 (rat IgG1, clone A85–1), or IgM (rat IgG2a, clone R6–60.2) (all purchased from PharMingen, La Jolla, Calif.) are added at 2.5 μg/ml for one hour at 20° C. followed by AP-labeled ExtrAvidin (Sigma) for one hour at 20° C. and AP substrate. Ig levels are presented as OD measurements. […]
# [3] = Toxicity in mice treated with MEB; assay type: in vivo; conditions: dose approximated 0.7 g/kg/day
# [4] = single ip dose 0.15 mmol on Day 2 or 3, serum day 10
# [5] = single ip dose 0.15 mmol on day 2, serum day 10
# [6] = single ip dose 0.15 mmol on day 2 or day 3, reimmunized Day 10, serum day 16
# [7] = single ip dose 0.15 mmol, reimmunized Day 10, serum day 16
compound,measurement,setting,value
"CCCC(=O)OCCN1CCOCC1.Cl [MEB, 2-(4-Morpholinyl)ethyl butyrate hydrochloride]",Proliferation in antigen-stimulated secondary cultures,[1]; primary culture: IL-2 and MEB (1 mM),retain their ability to proliferate to antigen
same,Proliferation in antigen-stimulated secondary cultures,[1]; primary culture: MEB alone (1 mM),retain their ability to proliferate in response to antigen stimulation
same,Proliferation in secondary cultures stimulated with exogenous IL-2,"[1]; primary culture: antigen (KLH) and MEB (1 mM), secondary: IL-2",can still proliferate
same,Proliferation in antigen-stimulated secondary cultures,[1]; primary culture: antigen (KLH) and MEB (1 mM),lose their ability to proliferate
same,"IgG2a anti-ovalbumin antibody, primary response",[2]; [4],significantly decreased
same,"IgG2b anti-ovalbumin antibody, primary response",[2]; [4],significantly decreased
same,"IgG, anti-ovalbumin antibody, primary response",[2]; [5],"decreased, albeit not dramatically"
same,"IgM anti-ovalbumin antibody, primary response",[2]; [5],"decreased, albeit not dramatically"
same,"Decrease of IgG2a anti-ovalbumin antibody, secondary response, compared to controls",[2]; [6],80%
same,"Decrease of IgG2b anti-ovalbumin antibody, secondary response, compared to controls",[2]; [6],80%
same,"IgG1 anti-ovalbumin production, secondary response",[2]; [7],significantly decreased
same,"IgM anti-ovalbumin production, secondary response",[2]; [7],unaffected
same,Toxicity,[3],No toxicity

# — patent publication US7034020B2, “Derivatives of butyric acid and uses thereof” (The University of Arkansas for Medical Science, priority 1999, dated 2006)
